Experimental data taken from the supplement of paper PMC11451515.

Legend:
Conditions in all cases: 48 h
NOMO1 [1] = test: AUC of viability dose-response curve (% viability x log10 dose units); higher = less sensitive
Procedure, shortened: (§1)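 Over 48 h at 37°C, leukemia cells in 1536-well plates (500 or 1000 cells/well), adapted to each medium, received library compounds in DMSO at 11 threefold doses from 47 μM to 0.79 nM. CellTiter-Glo One luminescence, normalised per plate to DMSO and cell-free wells, was fitted by a four-parameter log-logistic function of log10 dose. The area under the curve was then integrated by trapezoidal rule, after scaling curves above full viability and removing those that failed quality control.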

SEM cells [2] = test: as above
Procedure, shortened: as §1

P12-Ichikawa [3] = test: as above
Procedure, shortened: as §1

NOMO1 [4] = test: cell viability relative to DMSO control; higher = less cytotoxic
Procedure, shortened: (§2)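 In 1536-well plates, 5 μl of leukemia cells were seeded per well: 500 cells/well for NOMO1 or SEM and 1000 cells/well for P12-Ichikawa. Each line had first been adapted for at least four passages in each medium. Library compounds in DMSO were pin-dosed at 11 threefold concentrations between 47 μM and 0.79 nM, and CellTiter-Glo One luminescence was read after 48 h at 37°C. Viability is a per-plate percentage relative to DMSO wells, with cell-free wells as background.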

SEM cells [5] = test: as above
Procedure, shortened: as §2

P12-Ichikawa [6] = test: as above
Procedure, shortened: as §2

CCN(CC)CCOc1ccc(Cc2ccccc2)cc1
AUC of viability dose-response curve
Conditions | NOMO1 [1] | P12-Ichikawa [3] | SEM cells [2]
HPLM + 10% dialyzed FBS | 403 | 417 | 442
RPMI 5 mM glucose + 10% FBS | 431 | 446 | 380
RPMI 5 mM glucose + 10% dialyzed FBS | 464 | 409 | 409

cell viability [%]
Conditions | NOMO1 [4] | P12-Ichikawa [6] | SEM cells [5]
HPLM + 10% dialyzed FBS, 0.000781 µM | 97.9 | 103 | 102
HPLM + 10% dialyzed FBS, 0.00234 µM | 102 | 104 | 101
HPLM + 10% dialyzed FBS, 0.00702 µM | 113 | 102 | 110
HPLM + 10% dialyzed FBS, 0.0211 µM | 92.9 | 101 | 88.4
HPLM + 10% dialyzed FBS, 0.0632 µM | 110 | 98.9 | 92.2
HPLM + 10% dialyzed FBS, 0.19 µM | 106 | 103 | 102
HPLM + 10% dialyzed FBS, 0.569 µM | 113 | 105 | 104
HPLM + 10% dialyzed FBS, 1.71 µM | 102 | 95.4 | 89.4
HPLM + 10% dialyzed FBS, 5.12 µM | 74.1 | 85.2 | 87.1
HPLM + 10% dialyzed FBS, 15.4 µM | 21.2 | 29.8 | 75.9
HPLM + 10% dialyzed FBS, 46.1 µM | 14.2 | 22.8 | 46.6
RPMI 5 mM glucose + 10% FBS, 0.000781 µM | 92.2 | 101 | 107
RPMI 5 mM glucose + 10% FBS, 0.00234 µM | 92.2 | 95.9 | 98
RPMI 5 mM glucose + 10% FBS, 0.00702 µM | 94.2 | 95.1 | 98.9
RPMI 5 mM glucose + 10% FBS, 0.0211 µM | 106 | 95.9 | 102
RPMI 5 mM glucose + 10% FBS, 0.0632 µM | 102 | 99.4 | 95.5
RPMI 5 mM glucose + 10% FBS, 0.19 µM | 91.8 | 98.5 | 102
RPMI 5 mM glucose + 10% FBS, 0.569 µM | 101 | 102 | 91.9
RPMI 5 mM glucose + 10% FBS, 1.71 µM | 91.6 | 93 | 88.4
RPMI 5 mM glucose + 10% FBS, 5.12 µM | 83.4 | 85.7 | 44.9
RPMI 5 mM glucose + 10% FBS, 15.4 µM | 68.3 | 77.6 | 11.8
RPMI 5 mM glucose + 10% FBS, 46.1 µM | 57 | 79.3 | 9.79
RPMI 5 mM glucose + 10% dialyzed FBS, 0.000781 µM | 99.1 | 87.1 | 108
RPMI 5 mM glucose + 10% dialyzed FBS, 0.00234 µM | 96 | 96 | 102
RPMI 5 mM glucose + 10% dialyzed FBS, 0.00702 µM | 108 | 86.5 | 101
RPMI 5 mM glucose + 10% dialyzed FBS, 0.0211 µM | 108 | 97.8 | 113
RPMI 5 mM glucose + 10% dialyzed FBS, 0.0632 µM | 97.8 | 93.4 | 93.8
RPMI 5 mM glucose + 10% dialyzed FBS, 0.19 µM | 108 | 89.8 | 110
RPMI 5 mM glucose + 10% dialyzed FBS, 0.569 µM | 97.9 | 99.5 | 104
RPMI 5 mM glucose + 10% dialyzed FBS, 1.71 µM | 108 | 93.1 | 101
RPMI 5 mM glucose + 10% dialyzed FBS, 5.12 µM | 97.5 | 92 | 85.1
RPMI 5 mM glucose + 10% dialyzed FBS, 15.4 µM | 91.4 | 52 | 19.4
RPMI 5 mM glucose + 10% dialyzed FBS, 46.1 µM | 78.3 | 34.4 | 16.9

CCN1C[C@H](C)[N]2C(=C(O)C3=C2\C(=N/N(CC4=CC=C(F)C(=C4)Cl)C3=O)C(=O)NC)C1=O
AUC of viability dose-response curve
Conditions | NOMO1 [1] | P12-Ichikawa [3] | SEM cells [2]
HPLM + 10% dialyzed FBS | 408 | 458 | 440
RPMI 5 mM glucose + 10% FBS | 442 | 460 | 409
RPMI 5 mM glucose + 10% dialyzed FBS | 427 | 459 | 443

cell viability [%]
Conditions | NOMO1 [4] | P12-Ichikawa [6] | SEM cells [5]
HPLM + 10% dialyzed FBS, 0.000781 µM | 107 | 111 | 104
HPLM + 10% dialyzed FBS, 0.00234 µM | 125 | 116 | 103
HPLM + 10% dialyzed FBS, 0.00702 µM | 118 | 126 | 105
HPLM + 10% dialyzed FBS, 0.0211 µM | 126 | 102 | 107
HPLM + 10% dialyzed FBS, 0.0632 µM | 120 | 124 | 106
HPLM + 10% dialyzed FBS, 0.19 µM | 131 | 121 | 102
HPLM + 10% dialyzed FBS, 0.569 µM | 98.2 | 111 | 109
HPLM + 10% dialyzed FBS, 1.71 µM | 92.5 | 97.4 | 50.4
HPLM + 10% dialyzed FBS, 5.12 µM | 96.5 | 103 | 98.5
HPLM + 10% dialyzed FBS, 15.4 µM | 58 | 107 | 100
HPLM + 10% dialyzed FBS, 46.1 µM | 11.9 | 112 | 94
RPMI 5 mM glucose + 10% FBS, 0.000781 µM | 107 | 103 | 115
RPMI 5 mM glucose + 10% FBS, 0.00234 µM | 98.3 | 115 | 115
RPMI 5 mM glucose + 10% FBS, 0.00702 µM | 111 | 115 | 117
RPMI 5 mM glucose + 10% FBS, 0.0211 µM | 111 | 110 | 103
RPMI 5 mM glucose + 10% FBS, 0.0632 µM | 104 | 113 | 110
RPMI 5 mM glucose + 10% FBS, 0.19 µM | 96 | 114 | 106
RPMI 5 mM glucose + 10% FBS, 0.569 µM | 97.7 | 111 | 105
RPMI 5 mM glucose + 10% FBS, 1.71 µM | 99.2 | 101 | 18
RPMI 5 mM glucose + 10% FBS, 5.12 µM | 96.3 | 101 | 100
RPMI 5 mM glucose + 10% FBS, 15.4 µM | 80.3 | 105 | 103
RPMI 5 mM glucose + 10% FBS, 46.1 µM | 11.4 | 94.7 | 98.9
RPMI 5 mM glucose + 10% dialyzed FBS, 0.000781 µM | 106 | 102 | 101
RPMI 5 mM glucose + 10% dialyzed FBS, 0.00234 µM | 115 | 105 | 121
RPMI 5 mM glucose + 10% dialyzed FBS, 0.00702 µM | 107 | 108 | 125
RPMI 5 mM glucose + 10% dialyzed FBS, 0.0211 µM | 121 | 116 | 117
RPMI 5 mM glucose + 10% dialyzed FBS, 0.0632 µM | 118 | 105 | 125
RPMI 5 mM glucose + 10% dialyzed FBS, 0.19 µM | 98.4 | 101 | 121
RPMI 5 mM glucose + 10% dialyzed FBS, 0.569 µM | 102 | 117 | 122
RPMI 5 mM glucose + 10% dialyzed FBS, 1.71 µM | 111 | 108 | 51.6
RPMI 5 mM glucose + 10% dialyzed FBS, 5.12 µM | 92.6 | 89.7 | 115
RPMI 5 mM glucose + 10% dialyzed FBS, 15.4 µM | 65.6 | 92.4 | 112
RPMI 5 mM glucose + 10% dialyzed FBS, 46.1 µM | 13.9 | 92.5 | 105
